In patent publication US20250082674A1, “METHODS OF TREATING COPPER METABOLISM-ASSOCIATED DISEASES OR DISORDERS” (priority 2021, published 2025):
Like-named read-outs stand apart in the source and are kept apart here.

Test system: patients with Wilson disease (WD)
Conditions: for Transformed CGI-I Mean (SD): scores −3 (Very much improved) to 3 (Very much worse)
From the text: Dose modification, if required, was made as described herein.

Substance: Bis-choline tetrathiomolybdate [BC-TTM]
- CGI-S (1 to 7, 1 is normal) Mean (Baseline): 2.7
- UWDRS Part II (0-40) Mean (Baseline): 3.4
- UWDRS Part III (0-175) Mean (Baseline): 13.99
- UWDRS Part III functional subscale (0-10) Mean (Baseline): 1.390
- UWDRS Part III-arising from chair (0-4) Mean (Baseline): 0.3
- UWDRS Part III-gait (0-4) Mean (Baseline): 1.40
- UWDRS Part III-handwriting (0-4) Mean (Baseline): 0.6
- UWDRS Part III-speech (0-4) Mean (Baseline): 0.8
- key secondary endpoints (UWDRS, CGI) versus baseline (Study 301 extension period, interim): statistically significant improvements from baseline
- CGI-S (1 to 7, 1 is normal) LSM (SE) change from baseline (Week 24): −0.3 (0.07)
- CGI-S (1 to 7, 1 is normal) Mean (SD) change from baseline (Week 24): −0.2 (0.79)
- UWDRS Part II (0-40) LSM (SE) change from baseline (Week 24): −0.4 (0.20)
- UWDRS Part II (0-40) Mean (SD) change from baseline (Week 24): −0.3 (1.99)
- UWDRS Part III (0-175) LSM (SE) change from baseline (Week 24): −1.32 (0.619)
- UWDRS Part III (0-175) Mean (SD) change from baseline (Week 24): −0.74 (5.937)
- UWDRS Part III functional subscale (0-10) LSM (SE) change from baseline (Week 24): −0.158 (0.0547)
- UWDRS Part III functional subscale (0-10) Mean (SD) change from baseline (Week 24): −0.139 (0.4540)
- UWDRS Part III-arising from chair (0-4) LSM (SE) change from baseline (Week 24): −0.1 (0.03)
- UWDRS Part III-arising from chair (0-4) Mean (SD) change from baseline (Week 24): 0.0 (0.38)
- UWDRS Part III-gait (0-4) LSM (SE) change from baseline (Week 24): −0.21 (0.100)
- UWDRS Part III-gait (0-4) Mean (SD) change from baseline (Week 24): −0.17 (1.113)
- UWDRS Part III-handwriting (0-4) LSM (SE) change from baseline (Week 24): 0.0 (0.04)
- UWDRS Part III-handwriting (0-4) Mean (SD) change from baseline (Week 24): −0.1 (0.38)
- UWDRS Part III-speech (0-4) LSM (SE) change from baseline (Week 24): −0.1 (0.04)
- UWDRS Part III-speech (0-4) Mean (SD) change from baseline (Week 24): −0.1 (0.38)
- Transformed CGI-I Mean (SD) (Week 24): −0.5 (0.82)
- CGI-S (1 to 7, 1 is normal) LSM (SE) change from baseline (Week 48): −0.4 (0.07)
- CGI-S (1 to 7, 1 is normal) Mean (SD) change from baseline (Week 48): −0.5 (0.94)
- UWDRS Part II (0-40) LSM (SE) change from baseline (Week 48): −0.7 (0.21)
- UWDRS Part II (0-40) Mean (SD) change from baseline (Week 48): −0.7 (2.70)
- UWDRS Part III (0-175) LSM (SE) change from baseline (Week 48): −2.47 (0.638)
- UWDRS Part III (0-175) Mean (SD) change from baseline (Week 48): −2.32 (7.735)
- UWDRS Part III functional subscale (0-10) LSM (SE) change from baseline (Week 48): −0.230 (0.0569)
- UWDRS Part III functional subscale (0-10) Mean (SD) change from baseline (Week 48): −0.235 (0.6976)
- UWDRS Part III-arising from chair (0-4) LSM (SE) change from baseline (Week 48): 0.0 (0.04)
- UWDRS Part III-arising from chair (0-4) Mean (SD) change from baseline (Week 48): 0.0 (0.40)
- UWDRS Part III-gait (0-4) LSM (SE) change from baseline (Week 48): −0.26 (0.104)
- UWDRS Part III-gait (0-4) Mean (SD) change from baseline (Week 48): −0.18 (1.262)
- UWDRS Part III-handwriting (0-4) LSM (SE) change from baseline (Week 48): −0.1 (0.04)
- UWDRS Part III-handwriting (0-4) Mean (SD) change from baseline (Week 48): −0.2 (0.59)
- UWDRS Part III-speech (0-4) LSM (SE) change from baseline (Week 48): −0.1 (0.04)
- UWDRS Part III-speech (0-4) Mean (SD) change from baseline (Week 48): −0.1 (0.53)
- Transformed CGI-I Mean (SD) (Week 48): −0.7 (0.91)
- CGI-S (1 to 7, 1 is normal) LSM (SE) change from baseline (Week 72): −0.5 (0.07)
- CGI-S (1 to 7, 1 is normal) Mean (SD) change from baseline (Week 72): −0.6 (1.10)
- UWDRS Part II (0-40) LSM (SE) change from baseline (Week 72): −1.0 (0.22)
- UWDRS Part II (0-40) Mean (SD) change from baseline (Week 72): −1.2 (2.92)
- UWDRS Part III (0-175) LSM (SE) change from baseline (Week 72): −3.47 (0.672)
- UWDRS Part III (0-175) Mean (SD) change from baseline (Week 72): −3.27 (9.840)
- UWDRS Part III functional subscale (0-10) LSM (SE) change from baseline (Week 72): −0.253 (0.0604)
- UWDRS Part III functional subscale (0-10) Mean (SD) change from baseline (Week 72): −0.290 (0.8908)
- UWDRS Part III-arising from chair (0-4) LSM (SE) change from baseline (Week 72): −0.1 (0.04)
- UWDRS Part III-arising from chair (0-4) Mean (SD) change from baseline (Week 72): −0.1 (0.57)
- UWDRS Part III-gait (0-4) LSM (SE) change from baseline (Week 72): −0.15 (0.110)
- UWDRS Part III-gait (0-4) Mean (SD) change from baseline (Week 72): −0.12 (1.321)
- UWDRS Part III-handwriting (0-4) LSM (SE) change from baseline (Week 72): −0.2 (0.05)
- UWDRS Part III-handwriting (0-4) Mean (SD) change from baseline (Week 72): −0.2 (0.59)
- UWDRS Part III-speech (0-4) LSM (SE) change from baseline (Week 72): −0.1 (0.04)
- UWDRS Part III-speech (0-4) Mean (SD) change from baseline (Week 72): −0.1 (0.51)
- Transformed CGI-I Mean (SD) (Week 72): −0.5 (0.86)
- CGI-S (1 to 7, 1 is normal) LSM (SE) change from baseline (Week 96): −0.5 (0.09)
- CGI-S (1 to 7, 1 is normal) Mean (SD) change from baseline (Week 96): −0.6 (0.97)
- UWDRS Part II (0-40) LSM (SE) change from baseline (Week 96): −1.1 (0.30)
- UWDRS Part II (0-40) Mean (SD) change from baseline (Week 96): −1.1 (3.61)
- UWDRS Part III (0-175) LSM (SE) change from baseline (Week 96): −4.77 (0.865)
- UWDRS Part III (0-175) Mean (SD) change from baseline (Week 96): −4.09 (10.827)
- UWDRS Part III functional subscale (0-10) LSM (SE) change from baseline (Week 96): −0.386 (0.0801)
- UWDRS Part III functional subscale (0-10) Mean (SD) change from baseline (Week 96): −0.503 (0.9648)
- UWDRS Part III-arising from chair (0-4) LSM (SE) change from baseline (Week 96): −0.1 (0.05)
- UWDRS Part III-arising from chair (0-4) Mean (SD) change from baseline (Week 96): −0.2 (0.76)
- UWDRS Part III-gait (0-4) LSM (SE) change from baseline (Week 96): −0.12 (0.143)
- UWDRS Part III-gait (0-4) Mean (SD) change from baseline (Week 96): −0.11 (1.390)
- UWDRS Part III-handwriting (0-4) LSM (SE) change from baseline (Week 96): −0.3 (0.06)
- UWDRS Part III-handwriting (0-4) Mean (SD) change from baseline (Week 96): −0.4 (0.66)
